Measurements published in patent US20240050943A1, “MULTI-VOLUME MICROCHAMBER-BASED MICROFLUIDIC PLATFORM AND USE THEREOF” (CORNELL UNIVERSITY, priority 2020, published 2024).

Key:
[1] = tested on: GFP-labeled E. coli 541-15; assay: Antibiotic susceptibility test (AST) in the EL-MVM^2 microfluidic platform, resazurin fluorescence / GFP readout; format: cell-based; details: GFP-labeled E. coli 541-15, 4.5 hours of incubation; intermediate sub-GCP = 1.12-12.54 μg/mL
[2] = tested on: E. coli 541-15; assay: Gold standard broth microdilution (BMD) test, OD600; format: cell-based; details: E. coli 541-15, 1×10^6 CFU/mL

Substance: Gentamicin
- Turning point of GFP-labeled bacterial growth from partially to totally inhibited [1]: intermediate concentration range
- MIC (broth microdilution, OD600 nm, 80% reduction) [2]: 5.00 µg/mL
